We go through 18 molecules from ChEMBL document CHEMBL4406887, “Design and synthesis of biaryloxazolidinone derivatives containing amide or acrylamide moiety as novel antibacterial agents against Gram-positive bacteria” (Bioorg Med Chem Lett, 2019).

For series [1], the system named is Staphylococcus aureus. As to the kind of experiment: Antibacterial activity against methicillin-sensitive Staphylococcus aureus CLSI-based double dilution method. It is filed as functional.
Series [2] deals with Staphylococcus aureus. As to the kind of experiment: Antibacterial activity against methicillin-resistant Staphylococcus aureus CLSI-based double dilution method. It is filed as functional.
In the next series the test system is Enterococcus faecalis. Description: Antibacterial activity against linezolid-resistant Enterococcus faecalis CLSI-based double dilution method. The format is functional.
The subject of the next series is Enterococcus faecium. Description: Antibacterial activity against vancomycin-resistant Enterococcus faecium CLSI-based double dilution method. The format is functional.
Series [3] deals with Staphylococcus aureus. As to the kind of experiment: Antibacterial activity against Staphylococcus aureus ATCC 29213 CLSI-based double dilution method. The format is functional.
A short description of series [4]: Stability in artificial gastric acid at 1 mg/ml assessed as residual rate after 2.5 hrs by HPLC analysis relative to control. The format is ADME. Conditions: read-out: Stability.
Series [5] can be described thus: Stability in artificial gastric acid at 1 mg/ml assessed as residual rate after 3 hrs by HPLC analysis relative to control. The format is ADME. Conditions: read-out: Stability.
A short description of series [6]: Stability in artificial gastric acid at 1 mg/ml assessed as residual rate after 3.5 hrs by HPLC analysis relative to control. The format is ADME. Conditions: read-out: Stability.
Series [7] is described as follows: Stability in artificial gastric acid at 1 mg/ml assessed as residual rate after 1.5 hrs by HPLC analysis relative to control. It is filed as ADME. Conditions: read-out: Stability.
A short description of series [8]: Stability in artificial gastric acid at 1 mg/ml assessed as residual rate after 2 hrs by HPLC analysis relative to control. The format is ADME. As to conditions: read-out: Stability.
A short description of series [9]: Stability in artificial gastric acid at 1 mg/ml assessed as residual rate measured immediately by HPLC analysis relative to control. It is filed as ADME. As to conditions: read-out: Stability.
A short description of series [10]: Aqueous solubility of compound. The format is physicochemical. As to conditions: water.
The nature of series [11]: Stability in artificial gastric acid at 1 mg/ml assessed as residual rate after 4 hrs by HPLC analysis relative to control. It is filed as ADME. Conditions: read-out: Stability.
A short description of series [12]: Stability in artificial gastric acid at 1 mg/ml assessed as residual rate after 1 hr by HPLC analysis relative to control. Conditions: read-out: Stability. The format is ADME.
Series [13] can be described thus: Stability in artificial gastric acid at 1 mg/ml assessed as residual rate after 30 mins by HPLC analysis relative to control. The format is ADME. As to conditions: read-out: Stability.

SMILES strings stand for the structures. In brackets after ≈: the same amount, converted by molar mass. Where only a bound is given, the exact number is not on record here.

With `CC(=O)NC[C@H]1CN(c2ccc(-c3ccc(/C=C/C(=O)N4CCOCC4)cc3)c(F)c2)C(=O)O1`, the minimal inhibitory concentration (MIC) (as a rule, the lowest concentration that inhibits growth of the organism) in the series with Staphylococcus aureus [1] was 2 µg/mL (≈ 4.28 µM); against Staphylococcus aureus [2], 2 µg/mL (≈ 4.28 µM); against Enterococcus faecalis, 4 µg/mL (≈ 8.56 µM); in the series on Enterococcus faecium it was 2 µg/mL (≈ 4.28 µM); in the series on Staphylococcus aureus [3], 2 µg/mL (≈ 4.28 µM).

Take `CC(=O)NC[C@H]1CN(c2ccc(-c3ccc(/C=N/N4CCN(C)CC4)cc3)c(F)c2)C(=O)O1`: the remaining at 2.5 h, 1 mg/ml in series [4] amounted to 0%. In addition, the minimal inhibitory concentration (MIC) against Staphylococcus aureus [1], against Staphylococcus aureus [2], in the series on Enterococcus faecalis, in the series on Enterococcus faecium and with Staphylococcus aureus [3] was 0.0675 µg/mL (≈ 0.149 µM) each time. Besides, the remaining at 3 h, 1 mg/ml in [5] is 0%. Also, in [6], the remaining at 3.5 h, 1 mg/ml came out at 0%. Besides, the remaining at 1.5 h, 1 mg/ml in series [7] came out at 26.3%. Moreover, in series [8], the remaining at 2 h, 1 mg/ml was 16.1%. Besides, the remaining at 0 h, 1 mg/ml in series [9] came to 100%. The solubility (in general, the dissolved amount per volume that the medium holds) in series [10] came out at 71 µg/mL (≈ 157 µM). The remaining at 4 h, 1 mg/ml in [11] was found to be 0%. Further, the remaining at 1 h, 1 mg/ml in series [12] turned out to be 40.7%. Further, in [13], the remaining at 0.5 h, 1 mg/ml is 97.5%.

For the molecule `CC(=O)NC[C@H]1CN(c2ccc(-c3ccc(C(=O)N4CCCCC4)cc3)c(F)c2)C(=O)O1`, the minimal inhibitory concentration (MIC) with Staphylococcus aureus [1], against Staphylococcus aureus [2], with Enterococcus faecalis, against Enterococcus faecium and with Staphylococcus aureus [3] was 1 µg/mL (≈ 2.28 µM) throughout.

`CC(=O)NC[C@H]1CN(c2ccc(-c3ccc(/C=C/C(=O)N4CCC(C)CC4)cc3)c(F)c2)C(=O)O1`: the minimal inhibitory concentration (MIC) with Staphylococcus aureus [1], against Staphylococcus aureus [2], in the series on Enterococcus faecalis, against Enterococcus faecium and with Staphylococcus aureus [3] was 1 µg/mL (≈ 2.09 µM) in each case.

As to `CC(=O)NC[C@H]1CN(c2ccc(-c3ccc(CNCc4cnn[nH]4)cc3)c(F)c2)C(=O)O1` [RADEZOLID], the MIC with Staphylococcus aureus [1], in the series with Staphylococcus aureus [2], in the series on Enterococcus faecalis, against Enterococcus faecium and with Staphylococcus aureus [3] was 0.5 µg/mL (≈ 1.14 µM) in each case.

Take `CC(=O)NC[C@H]1CN(c2ccc(-c3ccc(C(=O)NC4CCCC4)cc3)c(F)c2)C(=O)O1`: the MIC with Staphylococcus aureus [1], against Staphylococcus aureus [2], with Enterococcus faecalis, against Enterococcus faecium and in the series on Staphylococcus aureus [3] was 1 µg/mL (≈ 2.28 µM) each time.

Regarding `CC(=O)NC[C@H]1CN(c2ccc(-c3ccc(C(=O)N4CCCC4)cc3)c(F)c2)C(=O)O1`, the MIC in the series with Staphylococcus aureus [1] is 1 µg/mL (≈ 2.35 µM); against Staphylococcus aureus [2] it was 1 µg/mL (≈ 2.35 µM); in the series with Enterococcus faecalis, 2 µg/mL (≈ 4.7 µM); against Enterococcus faecium, 2 µg/mL (≈ 4.7 µM); in the series with Staphylococcus aureus [3], 1 µg/mL (≈ 2.35 µM).

For `CC(=O)NC[C@H]1CN(c2ccc(-c3ccc(/C=C/C(=O)N4CCSCC4)cc3)c(F)c2)C(=O)O1`, the MIC against Staphylococcus aureus [1] turned out to be 1 µg/mL (≈ 2.07 µM); with Staphylococcus aureus [2], 2 µg/mL (≈ 4.14 µM); with Enterococcus faecalis, 2 µg/mL (≈ 4.14 µM); in the series with Enterococcus faecium, 2 µg/mL (≈ 4.14 µM); with Staphylococcus aureus [3], 1 µg/mL (≈ 2.07 µM).

For `CC(=O)NC[C@H]1CN(c2ccc(-c3ccc(C(=O)NC4CC4)cc3)c(F)c2)C(=O)O1`, the minimum inhibitory concentration (MIC) in the series on Staphylococcus aureus [1], against Staphylococcus aureus [2], against Enterococcus faecalis, against Enterococcus faecium and with Staphylococcus aureus [3] was 1 µg/mL (≈ 2.43 µM) each time.

As for `CC(=O)NC[C@H]1CN(c2ccc(-c3ccc(/C=C/C(=O)NC4CC4)cc3)c(F)c2)C(=O)O1`, the MIC in the series with Staphylococcus aureus [1], in the series on Staphylococcus aureus [2], against Enterococcus faecalis, against Enterococcus faecium and in the series on Staphylococcus aureus [3] was 1 µg/mL (≈ 2.29 µM) in each case.

Regarding `CC(=O)NC[C@H]1CN(c2ccc(-c3ccc(/C=C/C(=O)N4CCCC4)cc3)c(F)c2)C(=O)O1`, the MIC against Staphylococcus aureus [1], against Staphylococcus aureus [2], in the series on Enterococcus faecalis, with Enterococcus faecium and in the series with Staphylococcus aureus [3] was 1 µg/mL (≈ 2.21 µM) each time.

With `CC(=O)NC[C@H]1CN(c2ccc(N3CCOCC3)c(F)c2)C(=O)O1` [LINEZOLID], the MIC with Staphylococcus aureus [1] was 1 µg/mL (≈ 2.96 µM); with Staphylococcus aureus [2], 1 µg/mL (≈ 2.96 µM); with Enterococcus faecalis it was above 16 µg/mL; in the series with Enterococcus faecium, 2 µg/mL (≈ 5.93 µM); with Staphylococcus aureus [3] it was 1 µg/mL (≈ 2.96 µM).

As for `CC(=O)NC[C@H]1CN(c2ccc(-c3ccc(C(=O)N4CCOCC4)cc3)c(F)c2)C(=O)O1`, the MIC in the series on Staphylococcus aureus [1], with Staphylococcus aureus [2], in the series on Enterococcus faecalis, in the series with Enterococcus faecium and against Staphylococcus aureus [3] was 2 µg/mL (≈ 4.53 µM) each time.

Turning to `CC(=O)NC[C@H]1CN(c2ccc(-c3ccc(/C=C/C(=O)N4CCCCC4)cc3)c(F)c2)C(=O)O1`, the minimum inhibitory concentration (MIC) in the series with Staphylococcus aureus [1], against Staphylococcus aureus [2], with Enterococcus faecalis, in the series on Enterococcus faecium and against Staphylococcus aureus [3] was 1 µg/mL (≈ 2.15 µM) throughout.

With `CC(=O)NC[C@H]1CN(c2ccc(-c3ccc(C(=O)N4CCNCC4)cc3)c(F)c2)C(=O)O1`, the minimum inhibitory concentration (MIC) in the series on Staphylococcus aureus [1], against Staphylococcus aureus [2], against Enterococcus faecalis, against Enterococcus faecium and against Staphylococcus aureus [3] was 1 µg/mL (≈ 2.27 µM) throughout.

In the case of `CC(=O)NC[C@H]1CN(c2ccc(-c3ccc(C(=O)N4CCSCC4)cc3)c(F)c2)C(=O)O1`, the MIC worked out at 2 µg/mL (≈ 4.37 µM) with Staphylococcus aureus [1]; 2 µg/mL (≈ 4.37 µM) with Staphylococcus aureus [2]; 4 µg/mL (≈ 8.74 µM) in the series with Enterococcus faecalis; 2 µg/mL (≈ 4.37 µM) with Enterococcus faecium; 1 µg/mL (≈ 2.19 µM) in the series with Staphylococcus aureus [3].

As to `CC(=O)NC[C@H]1CN(c2ccc(-c3ccc(/C=C/C(=O)NC4CCCC4)cc3)c(F)c2)C(=O)O1`, the minimal inhibitory concentration (MIC) with Staphylococcus aureus [1], with Staphylococcus aureus [2], against Enterococcus faecalis, in the series on Enterococcus faecium and against Staphylococcus aureus [3] was 1 µg/mL (≈ 2.15 µM) throughout.

For `CC(=O)NC[C@H]1CN(c2ccc(-c3ccc(/C=C/C(=O)N4CCNCC4)cc3)c(F)c2)C(=O)O1`, the remaining at 2.5 h, 1 mg/ml in [4] amounted to 91.5%. Also, the minimal inhibitory concentration (MIC) worked out at 0.5 µg/mL (≈ 1.07 µM) in the series with Staphylococcus aureus [1]; 0.5 µg/mL (≈ 1.07 µM) against Staphylococcus aureus [2]; 0.25 µg/mL (≈ 0.536 µM) in the series with Enterococcus faecalis; 0.5 µg/mL (≈ 1.07 µM) with Enterococcus faecium; 0.5 µg/mL (≈ 1.07 µM) in the series with Staphylococcus aureus [3]. Further, the remaining at 3 h, 1 mg/ml in [5] was determined as 90.9%. The remaining at 3.5 h, 1 mg/ml in [6] is 89.7%. For the same molecule, in series [7], the remaining at 1.5 h, 1 mg/ml turned out to be 94.9%. The remaining at 2 h, 1 mg/ml in series [8] stood at 91.7%. For the same molecule, in [9], the remaining at 0 h, 1 mg/ml was 100%. Also, the solubility in [10] was determined as 115 µg/mL (≈ 247 µM). Besides, in [11], the remaining at 4 h, 1 mg/ml was determined as 88.7%. In addition, in series [12], the remaining at 1 h, 1 mg/ml came to 95.2%. Besides, the remaining at 0.5 h, 1 mg/ml in series [13] stood at 94.9%.
